What was measured:
HBV = experiment: HepAD38 antiviral assay: reduction of viral product accumulation (virion DNA by qPCR, HBsAg or HBeAg by ELISA); type: cell-based, hepatitis B virus; conditions: Hepatitis B virus, 120 h; HepAD38 cells, five days after compound addition; 50% reduction of viral product vs no drug controls; read-out: HepAD38 EC50
Method in brief: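 Tetracycline-free HepAD38 cells exposed to compound (DMSO stock diluted 1:200) for 5 days, or 8 days with media and compound refreshed on d2 and d5. Virion DNA quantified by qPCR after lysis; HBsAg or HBeAg measured by ELISA on diluted samples.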

[1] = Compound toxicity by ATPLite (total ATP levels); type: cell-based; conditions: human, three days after compound addition, 50% reduction of total ATP

SMILES	EC50 (HBV) [µM]	CC50 at 3 days ([1]; class symbols) [µM]	CC50 at 3 days ([1]; numeric bounds) [µM]
O=C(Nc1ccc(F)c(F)c1)c1ccc(Cl)c(S(=O)(=O)[C@H]2CC3CCC(C2)[C@]3(O)C(O)c2ncco2)c1 (stereo partly drawn) [Example 290]	< 0.104	> 25	–
COC(C)(C)CNC(=O)C[C@]1(O)C2CCC1C[C@@H](S(=O)(=O)c1cc(C(=O)Nc3ccc(F)c(F)c3)ccc1Cl)C2 [Example 191]	< 0.104	> 25	–
C=CCS(=O)(=O)NC[C@]1(O)C2CCC1C[C@@H](S(=O)(=O)c1cc(C(=O)Nc3cc(F)c(F)c(F)c3)ccc1Cl)C2 [Example 39]	< 0.104	–	> 6.25
O=C(C[C@]1(O)C2CCC1C[C@@H](S(=O)(=O)c1cc(C(=O)Nc3ccc(F)c(F)c3)ccc1Cl)C2)NC1CC(O)C1 (stereo partly drawn) [Example 192]	< 0.104	–	> 12.5
O=C(Nc1ccc(F)c(F)c1)c1ccc(Cl)c(S(=O)(=O)[C@H]2CC3CCC(C2)[C@]3(O)CNC(=O)c2ncco2)c1 [Example 167]	< 0.104	–	> 12.5
Cc1cc(Cl)c(S(=O)(=O)[C@H]2CC3CCC(C2)[C@]3(O)[C@H](O)[C@H](C)O)cc1C(=O)Nc1ccc(F)c(F)c1 [Example 335]	< 0.104	> 25	–
C[C@H](O)CNC(=O)C[C@]1(O)C2CCC1C[C@@H](S(=O)(=O)c1cc(C(=O)Nc3ccc(F)c(F)c3)ccc1Cl)C2 [Example 185]	< 0.104	–	> 12.5
O=C(Nc1ccc(F)c(F)c1)c1ccc(Cl)c(S(=O)(=O)[C@H]2CC3CCC(C2)[C@]3(O)C(O)Cc2ccccn2)c1 (stereo partly drawn) [Example 319]	< 0.104	> 25	–
CC(=O)C[C@@]1(O)C2CC[C@H]1C[C@H](S(=O)(=O)c1cc(C(=O)Nc3ccc(F)c(F)c3)ccc1Cl)C2 [Example 215]	< 0.104	> 25	–
O=C(Nc1ccc(F)c(F)c1)c1ccc(Cl)c(S(=O)(=O)[C@H]2CC3CCC(C2)[C@]3(O)[C@H](O)c2cccnc2)c1 (single isomer, unassigned) [Example 285b]	< 0.104	> 25	–
C=C1CC1C(=O)NC[C@@]1(O)C2CC[C@H]1C[C@H](S(=O)(=O)c1cc(C(=O)Nc3cc(F)c(F)c(F)c3)ccc1Cl)C2 (stereo partly drawn) [Example 66]	< 0.104	10 to 25	–
C[C@@H](O)[C@H](O)COC[C@]1(O)C2CCC1C[C@@H](S(=O)(=O)c1cc(C(=O)Nc3ccc(F)c(F)c3)ccc1Cl)C2 [Example 178]	< 0.104	> 25	–
CO[C@@H](C)CNC(=O)C[C@]1(O)C2CCC1C[C@@H](S(=O)(=O)c1cc(C(=O)Nc3ccc(F)c(F)c3)ccc1Cl)C2 [Example 188]	< 0.104	–	> 12.5
CC(C)(O)[C@@H](O)[C@@]1(O)C2CC[C@H]1C[C@H](S(=O)(=O)c1cc(C(=O)Nc3ccc(F)c(F)c3)ccc1Cl)C2 [Example 332]	< 0.104	> 25	–
CC(=O)OC[C@H](O)[C@@H](O)[C@@]1(O)C2CC[C@H]1C[C@H](S(=O)(=O)c1cc(C(=O)Nc3cc(F)c(F)c(F)c3)ccc1Cl)C2 (relative stereo) [Example 68]	< 0.104	> 25	–
C=CCc1cc(Cl)c(S(=O)(=O)[C@H]2CC3CCC(C2)[C@@]3(C)O)cc1C(=O)Nc1ccc(F)c(F)c1 [Example 135]	< 0.104	< 10	–
O=C(C[C@]1(O)C2CCC1C[C@@H](S(=O)(=O)c1cc(C(=O)Nc3cc(F)c(F)c(F)c3)ccc1Cl)C2)NC1(CO)CC1 [Example 117]	< 0.104	–	> 6.25
C[C@H](O)[C@@H](O)COC[C@]1(O)C2CCC1C[C@@H](S(=O)(=O)c1cc(C(=O)Nc3ccc(F)c(F)c3)ccc1Cl)C2 [Example 179]	< 0.104	> 25	–
C[C@@H]1CN([C@H]2C3CCC2C[C@H](S(=O)(=O)c2cc(C(=O)Nc4ccc(F)c(F)c4)ccc2Cl)C3)C(=O)O1 [Example 344]	< 0.104	> 25	–
CN1CCC[C@@H]1C(=O)NC[C@]1(O)C2CCC1C[C@@H](S(=O)(=O)c1cc(C(=O)Nc3cc(F)c(F)c(F)c3)ccc1Cl)C2 [Example 1]	< 0.104	–	> 3
O=C(Nc1ccc(F)c(F)c1)c1ccc(Cl)c(S(=O)(=O)[C@H]2CC3CCC(C2)[C@]3(O)C(O)Cc2ccncc2)c1 (stereo partly drawn) [Example 317]	< 0.104	> 25	–

— patent US11596611B2, “Hepatitis B antiviral agents” (ENANTA PHARMACEUTICALS, INC., priority 2017, dated 2023)
